In patent US20190255080A1, “METHOD OF REDUCING THYROID-ASSOCIATED SIDE EFFECTS” (Viking Therapeutics, Inc., priority 2016, published 2019):
Entries after “also recorded” stand apart in the source; their conditions may differ.

Tests used:
[1] = Previously determined no observable adverse effect level (NOAEL) and exposure at it; conditions: in vivo
Protocol: (§1) The maximum cumulative weekly dose will not exceed 40 mg in this current clinical study. […] The projected systemic exposure (AUC0-168 hr [i.e., exposure during one week]) of the active metabolite at the 40 mg once weekly dose is 5570 ng*hr/mL. […] Projected exposures in humans receiving 40 mg once weekly is therefore estimated to be about 3-fold lower than exposures at the previously determined 5 mg/kg/day no observable adverse effect level (NOAEL).

[2] = test system: patients with primary hypercholesterolemia and non-alcoholic fatty liver disease; assay: Phase 1b study: LDL-C and triglycerides over 4-week treatment period; type: in vivo, humans; conditions: 5 mg daily and up to 40 mg once weekly
Protocol: A phase 1b, randomized, double-blind, placebo-controlled, study is carried out to assess the efficacy, safety, and tolerability of Compound 1, administered for 12 weeks followed by a 4-week off-drug phase, in patients with primary hypercholesterolemia and non-alcoholic fatty liver disease.
as §1
Approximately 32 subjects are enrolled and randomly assigned in a 6:2 ratio (Compound 1:placebo) to one of the following treatment groups: (1) 5 mg Compound 1 or Placebo once daily (2) 20 mg Compound 1 or Placebo once weekly (3) 40 mg Compound 1 or Placebo once weekly (4) 10 mg Compound 1 or Placebo every other day The primary endpoint is the percent change in LDL-C from the baseline visit to Day 29. Either a 20% decrease in LDL-C or a lowering of LDL-C to within the normal range is considered clinically meaningful. Subjects are also monitored for adverse effects and/or clinically relevant changes in health status or results from laboratory analyses. […]

[3] = test system: beagle dogs; assay: Alternative dosing study in dogs: total plasma cholesterol levels; type: in vivo
Protocol: (§2) The objective of the study was to determine the effects of oral administration of Compound 2 once-daily for 14 days followed by alternate day dosing for 14 days on plasma cholesterol levels and indicators of thyroid function in beagle dogs. Compound 2 was formulated with Lutrol F68 NF (Poloxomer 188) and carboxymethylcellulose (CMC; sodium salt/high viscosity) and was administered as a suspension in 0.5% CMC/1% Lutrol in deionized water. Twelve beagle dogs (9-15 kg) were randomized into 6 dosing groups (1 male and 1 female/group) and gavaged once-daily with a 0.5% CMC/1% Lutrol F68 suspension of Compound 2 at doses of […] or with vehicle for 14 days. At the end of the treatment cycle (Cycle 1), the dogs were washed out for 4 weeks and then entered into a second 14-day treatment cycle. Cycle 2 employed the same dosing paradigm as Cycle 1, but animals were randomized to Cycle 2 in such a way that the combined dosing groups from the two cycles consisted of 4 different animals (2 males, 2 females) each. At the conclusion of Cycle 2, dosing was continued on alternate days for an additional 14-day period (Cycle 2 Extension). Blood samples were collected at baseline and appropriate time intervals thereafter and analyzed for total plasma cholesterol levels, serum levels of total T4 (tT4), free T4 (fT4), total T3 (tT3), free T3 (fT3), and thyroid stimulating hormone (TSH).

[4] = test system: beagle dogs; assay: Alternative dosing study in dogs: indicators of thyroid function (serum tT4, fT4, tT3, fT3, TSH); type: in vivo
Protocol: as §2

[5] = 0.3 mg/kg/day, once-daily oral, 14 days
[6] = 10 mg/kg/day (highest dose), once-daily oral, 14 days
[7] = alternate day dosing after once-daily treatment

SMILES | NOAEL [1] | LDL-C [2] | triglycerides [2] | effects on total plasma cholesterol levels ([3]; 0.1 mg/kg/day (lowest dose), once-daily oral) | average reduction of total plasma cholesterol levels on Day 15 [3, 5] | average reduction of total plasma cholesterol levels on Day 15 from baseline [3, 5] | average reduction of total plasma cholesterol levels on Day 15 [3, 6] | average reduction of total plasma cholesterol levels on Day 15 from baseline [3, 6] | total plasma cholesterol levels during alternate day dosing ([3]; Cycle 2 Extension, alternate day dosing for 14 days after 14 days once-daily) | reductions of average total plasma cholesterol levels from baseline ([3]; once-daily oral, 14 days, 0.1-10 mg/kg) | levels of fT4 during Cycle 2 Extension [4, 7] | levels of tT4 during Cycle 2 Extension [4, 7] | recovery of TSH levels during Cycle 2 Extension [4, 7] | recovery of fT3 levels during Cycle 2 Extension [4, 7] | effects on serum TSH levels on Day 8 ([4]; once-daily treatment, Day 8) | TSH levels reduced from baseline on Day 15 ([4]; once-daily treatment, Day 15, non-dose-dependent) | changes in tT3 levels relative to baseline levels ([4]; once-daily treatment, compared with vehicle-treated group) | reductions of serum tT4 from baseline levels ([4]; once-daily treatment, dose-dependent, across dose groups) | reductions of fT4 from baseline levels ([4]; once-daily treatment, dose-related, across dose groups) | reductions of fT3 from baseline levels ([4]; once-daily treatment, non-dose-dependent, across dose groups)
Cc1cc(OCP(=O)(OCOC(=O)C(C)(C)C)OCOC(=O)C(C)(C)C)cc(C)c1Cc1ccc(O)c(Cc2ccccc2)c1 [Compound 1] | 5 mg/kg/day | dose and/or schedule dependent decreases | dose and/or schedule dependent decreases |  |  |  |  |  |  |  |  |  |  |  |  |  |  |  |  | 
Cc1cc(OC[P@]2(=O)OC[C@@H](c3cccc(Cl)c3)CO2)cc(C)c1Cc1ccc(O)c(C(C)C)c1 [Compound 2] |  |  |  | minimal effects | -28 mg/dL | ~22% | -71 mg/dL | ~47% | remained reduced relative to vehicle-treated animals to a similar or greater extent than observed after once-daily dosing; also recorded: did not compromise cholesterol lowering efficacy | up to 47% | gradually recovered to levels that approached those of vehicle-treated animals | gradually recovered to levels that approached those of vehicle-treated animals | more variable recovery | more variable recovery | variable, with full suppression in some animals and up to 4-fold elevations in others | 6-27% | no meaningful changes; also recorded: unaffected | 20-54% | 8-39% | 15-32%
